Source: patent US6538000B1, “Tricyclic dihydropyrimidine potassium channel openers” (Abbott Laboratories, priority 1999, dated 2003)
Values belong to the compound of their own block, whether it stands above or below them.

Columns and labels:
potassium channels [1] = target: potassium channels (Sus scrofa, UniProt F1SR11); assay: Functional potassium channel opening activity in isolated bladder strips (field-stimulated twitch); set-up: species or system Landrace pig; settings: for Emax: pig, read-out: Efficacy (% P1075), Landrace pig bladder strips, maximal efficacy relative to P1075
Method: Compounds of the present invention were evaluated for functional potassium channel opening activity using tissue strips obtained from Landrace pig bladders.
Landrace pig bladders were obtained from female Landrace pigs of 9-30 kg. Landrace pigs were euthanized with an intraperitoneal injection of pentobarbital solution, Somlethal®, J. A. Webster Inc., Sterling Mass. The entire bladder was removed and immediately placed into Krebs Ringer bicarbonate solution (composition, mM: NaCl, 120; NaHCO3, 20; dextrose, 11; KCl, 4.7; CaCl2, 2.5; MgSO4, 1.5; KH2PO4, 1.2; K2EDTA, 0.01, equilibrated with 5% CO2/95% O2 pH 7.4 at 37° C.). Propranolol (0.004 mM) was included in all of the assays to block β-adrenoceptors. The trigonal and dome portions were discarded. Strips 3-5 mm wide and 20 mm long were prepared from the remaining tissue cut in a circular fashion. The mucosal layer was removed. One end was fixed to a stationary glass rod and the other to a Grass FT03 transducer at a basal preload of 1.0 gram. Two parallel platinum electrodes were included in the stationary glass rod to provide field stimulation of 0.05 Hz, 0.5 milli-seconds at 20 volts. This low frequency stimulation produced a stable twitch response of 100-500 centigrams. Tissues were allowed to equilibrate for at least 60 minutes and primed with 80 mM KCl. A control concentration response curve (cumulative) was generated for each tissue using the potassium channel opener P1075 as the control agonist. […] After a 60 minute rinsing period, a concentration response curve (cumulative) was generated for the test agonist in the same fashion as that used for the control agonist P1075. The maximal efficacy of each compounds (expressed as % relative to P1075) is reported. […] Agonist potencies were also expressed as an index relative to P1075. The index was calculated by dividing the ED50 for P1075 by the ED50 for the test agonist in a given tissue. […]

potassium channels [2] = target: potassium channels (Cavia porcellus, UniProt A0A286XYR9); assay: Membrane hyperpolarization (MHP) assay, DiBAC(4)3 FLIPR, primary cultured guinea-pig urinary bladder (GPB) cells; format: cell-based
Method: Compounds were evaluated for potassium channel opening activity using primary cultured guinea-pig urinary bladder (GPB) cells.
For the preparation of urinary bladder smooth muscle cells, urinary bladders were removed from male guinea-pigs (Hartley, Charles River, Wilmington, Mass.) weighing 300-400 g and placed in ice-cold Ca^2+-free Krebs solution (Composition, mM: KCl, 2.7; KH2PO4, 1.5; NaCl, 75; Na2HPO4, 9.6; Na2HPO4.7H2O, 8; MgSO4, 2; glucose, 5; HEPES, 10; pH 7.4). Cells were isolated by enzymatic dissociation as previously described with minor modifications in (Klockner, U. and Isenberg, G., Pflugers Arch. 1985, 405, 329-339), hereby incorporated by reference. […]
Functional activity at potassium channels was measured by evaluating changes in membrane potential using the bis-oxonol dye DiBAC(4)3 (Molecular Probes) in a 96-well cell-based kinetic assay system, Fluorescent Imaging Plate Reader (FLIPR) (K. S. Schroeder et al., J. Biomed. Screen., v. 1 pp. 75-81 (1996)), hereby incorporated by reference. […] With increasing membrane potential (for example, K^+ depolarization), the probe further partitions into the cell; this is measured as an increase in fluorescence due to dye interaction with intracellular lipids and proteins. Conversely, decreasing membrane potential (hyperpolarization by potassium channel openers) evokes a decrease in fluorescence. […]

potassium channels (Cavia porcellus, UniProt A0A286XYR9), sequence (A0A286XYR9 1-1546): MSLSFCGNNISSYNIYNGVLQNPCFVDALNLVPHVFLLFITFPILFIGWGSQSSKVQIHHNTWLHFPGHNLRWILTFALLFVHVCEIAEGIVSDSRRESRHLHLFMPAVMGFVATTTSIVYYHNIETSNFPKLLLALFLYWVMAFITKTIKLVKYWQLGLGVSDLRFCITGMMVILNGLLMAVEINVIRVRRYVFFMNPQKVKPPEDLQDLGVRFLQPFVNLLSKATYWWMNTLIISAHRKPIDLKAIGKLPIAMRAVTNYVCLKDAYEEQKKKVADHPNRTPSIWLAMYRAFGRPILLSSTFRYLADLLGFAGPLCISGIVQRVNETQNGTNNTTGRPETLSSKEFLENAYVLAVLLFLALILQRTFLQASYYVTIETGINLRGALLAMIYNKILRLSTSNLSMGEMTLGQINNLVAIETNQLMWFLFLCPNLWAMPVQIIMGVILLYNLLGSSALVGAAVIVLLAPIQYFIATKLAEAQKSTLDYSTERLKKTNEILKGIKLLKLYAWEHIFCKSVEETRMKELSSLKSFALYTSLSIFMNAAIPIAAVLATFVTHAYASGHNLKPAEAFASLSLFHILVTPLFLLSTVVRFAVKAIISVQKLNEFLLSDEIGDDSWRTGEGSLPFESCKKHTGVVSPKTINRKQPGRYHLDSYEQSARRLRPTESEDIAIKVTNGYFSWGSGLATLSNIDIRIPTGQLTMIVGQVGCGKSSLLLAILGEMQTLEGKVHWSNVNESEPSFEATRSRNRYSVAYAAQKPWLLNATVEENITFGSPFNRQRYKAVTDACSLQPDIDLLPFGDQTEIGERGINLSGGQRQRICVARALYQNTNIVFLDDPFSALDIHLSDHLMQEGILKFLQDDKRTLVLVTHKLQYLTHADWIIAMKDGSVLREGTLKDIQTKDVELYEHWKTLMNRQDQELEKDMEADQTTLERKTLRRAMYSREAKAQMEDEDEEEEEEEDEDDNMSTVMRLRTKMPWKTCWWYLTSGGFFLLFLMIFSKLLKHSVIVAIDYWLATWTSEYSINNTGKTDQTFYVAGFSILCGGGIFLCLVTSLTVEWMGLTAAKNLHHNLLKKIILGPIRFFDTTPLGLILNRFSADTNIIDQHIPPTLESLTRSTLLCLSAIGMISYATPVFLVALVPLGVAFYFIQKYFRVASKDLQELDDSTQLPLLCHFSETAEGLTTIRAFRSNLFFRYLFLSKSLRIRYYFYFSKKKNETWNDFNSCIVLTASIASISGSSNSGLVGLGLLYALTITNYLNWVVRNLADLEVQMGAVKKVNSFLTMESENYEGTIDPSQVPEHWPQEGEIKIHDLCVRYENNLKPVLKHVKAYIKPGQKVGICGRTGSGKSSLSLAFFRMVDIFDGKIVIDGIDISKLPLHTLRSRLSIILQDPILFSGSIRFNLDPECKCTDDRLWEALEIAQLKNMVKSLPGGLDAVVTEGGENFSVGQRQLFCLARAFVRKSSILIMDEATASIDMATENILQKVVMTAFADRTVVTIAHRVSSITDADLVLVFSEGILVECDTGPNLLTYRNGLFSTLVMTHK
potassium channels (Cavia porcellus, UniProt A0A286XYR9), sequence (Q9JHJ9 whole entry partner): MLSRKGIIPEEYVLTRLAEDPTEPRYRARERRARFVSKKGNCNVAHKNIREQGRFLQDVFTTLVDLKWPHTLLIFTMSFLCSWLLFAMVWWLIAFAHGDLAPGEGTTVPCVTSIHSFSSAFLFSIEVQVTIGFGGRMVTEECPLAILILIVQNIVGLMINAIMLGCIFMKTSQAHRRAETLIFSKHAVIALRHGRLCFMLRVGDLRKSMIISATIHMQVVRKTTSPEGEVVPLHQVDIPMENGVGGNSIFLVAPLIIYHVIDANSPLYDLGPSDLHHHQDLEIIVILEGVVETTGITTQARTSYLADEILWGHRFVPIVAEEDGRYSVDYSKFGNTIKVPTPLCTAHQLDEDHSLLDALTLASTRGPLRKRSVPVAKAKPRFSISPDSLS

SMILES: O=C1CCCC2=C1C(c1ccc(Br)c(F)c1)n1nccc1N2 (stereo not drawn) [Example 1, 9-(4-Bromo-3-fluorophenyl)-5,6,7,9-tetrahydropyrazolo[5,1-b]quinazolin-8(4H)-one]
Emax (potassium channels [1]): 96%

SMILES: O=C1CCCC2=C1C(c1ccc(F)c(Br)c1)n1nccc1N2 (single isomer, unassigned; (-)) [Example 15, (−) 9-(3-Bromo-4-fluorophenyl)-5,6,7,9-tetrahydropyrazolo[5,1-b]quinazolin-8(4H)-one]
Emax (potassium channels [1]): 100%

melting point: 160 to 163 °C
SMILES: O=C1CSCC2=C1C(c1ccc(F)c(Br)c1)n1nccc1N2 (stereo not drawn) [Example 2, 9-(3-Bromo-4-fluorophenyl)-5,9-dihydro-4H-pyrazolo[1,5-a]thiopyrano[3,4-d]pyrimidin-8(7H)-one]

SMILES: CCC(C)(C)NC(=NC#N)Nc1cccnc1 [Example P1075, N″-cyano-N-(tert-pentyl)-N′-(3-pyridinyl)guanidine, reference compound]
effect on stimulated twitch / stimulated contractions of the bladder (potassium channels [1]; field stimulation 0.05 Hz, 0.5 ms, 20 volts, P1075 10^−9 to 10^−5 M): completely eliminated the stimulated twitch

Maximal Response (% P1075) (potassium channels [2]; maximal steady-state hyperpolarization in GPB cells, normalized to 10 μM P1075 = 100%): 113 % P1075
EC50 (potassium channels [2]; membrane hyperpolarization in GPB cells, concentration that elicits 50% of the maximal response for the test sample): 33 nM
SMILES: O=C1CCCC2=C1C(c1ccc(Cl)c(Cl)c1)n1ncc(Br)c1N2 (stereo not drawn) [Example 48, 3-Bromo-9-(3,4-dichlorophenyl)-5,6,7,9-tetrahydropyrazolo[5.1-b]quinazolin-8(4H)-one]
